How the values were obtained:
5-HT1A receptor = molecular target: T1, 5-HT1A receptor (Homo sapiens, UniProt P08908); experiment: cAMP-Glo luminescence assay in +5-HT1A cells (CHO-K1/5-HT1A/Gα15) with forskolin; format: cell-based; conditions: +5HT1A cell cultures, fixed (4 μM) forskolin, n=3; for luminescence (cAMP) trend with decreasing ligand dosage, 5-HT1A modulation: FIGS. 11J, 11K; for % cAMP levels with decreasing ligand dosage, 5-HT1A activity: FIGS. 11L, 11M
T1 construct: host or cells: CHO-K1 (stably expressing 5-HT1A and Gα15)
T1 sequence (P08908 1-422): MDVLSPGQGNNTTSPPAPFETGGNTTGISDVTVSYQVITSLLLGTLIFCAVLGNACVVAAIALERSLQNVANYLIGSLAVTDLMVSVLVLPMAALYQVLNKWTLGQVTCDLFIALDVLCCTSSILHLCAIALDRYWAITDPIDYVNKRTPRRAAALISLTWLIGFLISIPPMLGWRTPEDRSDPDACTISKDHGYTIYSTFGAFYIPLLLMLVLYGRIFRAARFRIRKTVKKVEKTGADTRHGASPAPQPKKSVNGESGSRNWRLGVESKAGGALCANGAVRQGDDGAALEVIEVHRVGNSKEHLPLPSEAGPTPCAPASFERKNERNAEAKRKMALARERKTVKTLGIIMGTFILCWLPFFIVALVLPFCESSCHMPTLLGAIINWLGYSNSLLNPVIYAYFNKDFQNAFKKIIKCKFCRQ
Excerpt: CHO-K1/Gα15 (GenScript, M00257) (−5-HT1A) and CHO-K1/5-HT1A/Gα15 (GenScript, M00330) (+5-HT1A) cells lines were used. Briefly, CHO-K1/Gα15 is a control cell line that constitutively expresses Gα15 which is a promiscuous Gq protein. This control cell line lacks any transgene encoding 5-HT1A receptors, but still responds to forskolin; thus, cAMP response to forskolin should be the same regardless of whether or not 5-HT1A agonists are present. Conversely, CHO-K1/5-HT1A/Gα15 cells stably express 5-HT1A receptor in the CHO-K1 host background. […] In +5-HT1A cells, Gα15 may be recruited in place of Gαi/o, which could theoretically dampen cAMP response (Rojas and Fiedler 2016, Front Cell Neurosci 10: 272). […] In contrast, tryptophan is not known to activate, or modulate in any way, 5-HT1A receptors, and was thus used as a negative control. Cells were maintained in complete growth media as recommended by supplier (GenScript) which is constituted as follows: Ham's F12 Nutrient mix (HAM's F12, GIBCO #11765-047) with 10% fetal bovine serum (FBS) (Thermo Scientific #12483020), 200 μg/ml zeocin (Thermo Scientific #R25005) and/or 100 μg/ml hygromycin (Thermo Scientific #10687010). The cells were cultured in a humidified incubator with 37° C. and 5% CO2. Cells maintenance was carried out as recommended by the cell supplier. Briefly, vials with cells were removed from the liquid nitrogen and thawed quickly in 37° C. water bath. Just before the cells were completely thawed the vial's outside was decontaminated by 70% ethanol spray. The cell suspension was then retrieved from the vial and added to warm (37° C.) complete growth media, and centrifuged at 1,000 rpm for 5 minutes. The supernatant was discarded, and the cell pellet was then resuspended in another 10 ml of complete growth media, and added to the 10 cm cell culture dish (Greiner Bio-One #664160). The media was changed every third day until the cells were about 90% confluent. The ˜90% confluent cells were then split 10:1 for maintenance or used for experiment.
(§1) As 5-HT1A activation inhibits cAMP formation, the ability of test molecules to modulate 5-HT1A response was measured via changes in the levels of cAMP produced due to application of 4 μM forskolin. The change in intracellular cAMP levels due to the treatment of novel molecules was measured using cAMP-Glo Assay kit (Promega #V1501). […] Reduced ATP caused reduced conversion of luciferin to oxyluciferin, conferring diminished luminescence as the result of 5-HT1A activation. Conversely, enhanced luminescence was expected in cases where 5-HT1A receptor modulation—imparted by a test molecule—caused downstream increases in ATP, thus imparting enhanced conversion of luciferin to oxyluciferin.

[1] = tested on: CHO-K1/Gα15 (−5-HT1A) cells; experiment: cAMP-Glo assay in control −5-HT1A cells (CHO-K1/Gα15) with forskolin; format: cell-based; conditions: −5HT1A cell cultures; fixed (4 μM) forskolin; n=3; FIGS. 11L, 11M
Excerpt: CHO-K1/Gα15 (GenScript, M00257) (−5-HT1A) and CHO-K1/5-HT1A/Gα15 (GenScript, M00330) (+5-HT1A) cells lines were used. Briefly, CHO-K1/Gα15 is a control cell line that constitutively expresses Gα15 which is a promiscuous Gq protein. This control cell line lacks any transgene encoding 5-HT1A receptors, but still responds to forskolin; thus, cAMP response to forskolin should be the same regardless of whether or not 5-HT1A agonists are present. Conversely, CHO-K1/5-HT1A/Gα15 cells stably express 5-HT1A receptor in the CHO-K1 host background. […] In +5-HT1A cells, Gα15 may be recruited in place of Gαi/o, which could theoretically dampen cAMP response (Rojas and Fiedler 2016, Front Cell Neurosci 10: 272). […]
as §1

5-HT2A receptor = molecular target: T2, 5-HT2A receptor (Homo sapiens, UniProt P28223); experiment: [3H]ketanserin competition binding assay (Scintillation Proximity Assay); conditions: fixed (1 nM) [3H]ketanserin; membranes containing 5-HT2A; FIG. 11E
T2 construct: purchased PerkinElmer ES-313-M400UA
T2 sequence (P28223 whole entry): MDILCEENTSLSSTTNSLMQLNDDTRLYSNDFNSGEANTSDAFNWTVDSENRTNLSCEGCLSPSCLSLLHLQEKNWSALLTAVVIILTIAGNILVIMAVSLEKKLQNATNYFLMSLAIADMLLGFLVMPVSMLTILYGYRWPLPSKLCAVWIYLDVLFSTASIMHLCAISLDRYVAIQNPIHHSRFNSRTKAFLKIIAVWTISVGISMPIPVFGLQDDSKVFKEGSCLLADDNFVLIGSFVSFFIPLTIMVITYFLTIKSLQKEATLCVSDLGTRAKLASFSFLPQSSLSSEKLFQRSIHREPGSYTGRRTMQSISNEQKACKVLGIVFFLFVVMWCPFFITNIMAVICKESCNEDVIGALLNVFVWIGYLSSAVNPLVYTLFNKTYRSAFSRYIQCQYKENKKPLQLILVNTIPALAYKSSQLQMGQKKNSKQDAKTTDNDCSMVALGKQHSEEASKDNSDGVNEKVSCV
Excerpt: Evaluation of drug binding is an essential step to characterization of all drug-target interactions (Fang 2012, Exp Opin Drug Discov 7:969). The binding affinity of a drug to a target is traditionally viewed as an acceptable surrogate of its in vivo efficacy (Núnez et al., 2012, Drug Disc Today 17: 10). Competition assays, also called displacement or modulation binding assays, are a common approach to measure activity of a ligand at a target receptor (Flanagan 2016, Methods Cell Biol 132: 191). In these assays, standard radioligands acting either as agonists or antagonists are ascribed to specific receptors. […] After incubation, the samples were read on a MicroBeta 2 Microplate Counter (Perkin Elmer). […] Equilibrium binding constants for ketanserin (Kd) were determined from saturation binding curves using the ‘one-site saturation binding analysis’ method of GraphPad PRISM software (Version 9.2.0). […] Ki values were calculated from the competition displacement data using the competitive binding analysis from GraphPad PRISM software. […] Specific binding in counts per minute (cpm) was calculated by subtracting non-specific binding from total binding. Specific binding (pmol/mg) was calculated from pmol of [^3H]ketanserin bound per mg of protein in the assay. The Kd was calculated by fitting the data with the one-site binding model of PRISM software (version 9.2.0).

CN(C)CCc1c[nH]c2ccccc12 [DMT]
luminescence (cAMP) trend with decreasing ligand dosage, 5-HT1A modulation (5-HT1A receptor): 5-HT1A activity

COc1c(N)ccc2[nH]cc(CCN)c12 [compound (IX)]
% cAMP levels with decreasing ligand dosage, 5-HT1A activity (5-HT1A receptor): 5-HT1A binding activity | trend of increasing % cAMP levels with decreasing ligand dosage [1]: not observed

CN(C)CCc1c[nH]c2cccc(O)c12 [psilocin]
competition binding curve at the 5-HT2A receptor (5-HT2A receptor): binding

NCCc1c[nH]c2ccc(O)cc12 [serotonin]
% cAMP levels with decreasing ligand dosage, 5-HT1A activity (5-HT1A receptor): 5-HT1A binding activity | trend of increasing % cAMP levels with decreasing ligand dosage [1]: not observed

N[C@@H](Cc1c[nH]c2ccccc12)C(=O)O [tryptophan]
luminescence (cAMP) trend with decreasing ligand dosage, 5-HT1A modulation (5-HT1A receptor): lack of 5-HT1A modulation | competition binding curve at the 5-HT2A receptor (5-HT2A receptor): no binding
